Source: US9770022B2, “N-cycloalkyl-N-[(bicyclylphenyl)methylene]-(thio)carboxamide derivatives” (BAYER CROPSCIENCE AG, priority 2013, dated 2017)
Read-outs that look alike come from different tables or passages of the source.

What was measured:
[1] = log P by HPLC on reversed-phase column (C 18), EEC Directive 79/831 Annex V.A8; type: physicochemical; details: Table 1, HPLC C 18, 40° C., 0.1% aqueous formic acid and acetonitrile, gradient 10% to 90% acetonitrile, two values = mixture of endo and exo isomers
Protocol: In table 1, the log P values were determined in accordance with EEC Directive 79/831 Annex V.A8 by HPLC (High Performance Liquid Chromatography) on a reversed-phase column (C 18), using the method described below:
Temperature: 40° C.; Mobile phases: 0.1% aqueous formic acid and acetonitrile; linear gradient from 10% acetonitrile to 90% acetonitrile.
Calibration was carried out using unbranched alkan-2-ones (comprising 3 to 16 carbon atoms) with known log P values (determination of the log P values by the retention times using linear interpolation between two successive alkanones). lambda-max-values were determined using UV-spectra from 200 nm to 400 nm and the peak values of the chromatographic signals.

[2] = system: Puccinia recondita; assay: In vivo preventive test on Puccinia recondita (brown rust on wheat); details: 500 ppm of active ingredient, evaluated 11 days after inoculation
Protocol: (§1) Solvent: 5% by volume of Dimethyl sulfoxide
(§2) • 10% by volume of Acetone Emulsifier: 1 μl of Tween® 80 per mg of active ingredient
(§3) The active ingredients are made soluble and homogenized in a mixture of Dimethyl sulfoxide/Acetone/Tween® 80 and then diluted in water to the desired concentration.
(§4) The young plants of wheat are treated by spraying the active ingredient prepared as described above. Control plants are treated only with an aqueous solution of Acetone/Dimethyl sulfoxide/Tween® 80.
After 24 hours, the plants are contaminated by spraying the leaves with an aqueous suspension of Puccinia recondita spores. The contaminated wheat plants are incubated for 24 hours at 20° C. and at 100% relative humidity and then for 10 days at 20° C. and at 70-80% relative humidity.
(§5) The test is evaluated 11 days after the inoculation. 0% means an efficacy which corresponds to that of the control plants while an efficacy of 100% means that no disease is observed.

[3] = system: Pyrenophora teres; assay: In vivo preventive test on Pyrenophora teres (barley); details: 500 ppm of active ingredient, evaluated 14 days after inoculation
Protocol: as §1, §2, §3
The young plants of barley are treated by spraying the active ingredient prepared as described above. Control plants are treated only with an aqueous solution of Acetone/Dimethyl sulfoxide/Tween® 80.
After 24 hours, the plants are contaminated by spraying the leaves with an aqueous suspension of Pyrenophora teres spores. The contaminated barley plants are incubated for 48 hours at 20° C. and at 100% relative humidity and then for 12 days at 20° C. and at 70-80% relative humidity.
The test is evaluated 14 days after the inoculation. 0% means an efficacy which corresponds to that of the control plants while an efficacy of 100% means that no disease is observed.

[4] = system: Alternaria brassicae; assay: In vivo preventive test on Alternaria brassicae (leaf spot on radish); details: 500 ppm of active ingredient, spray 24 hours before inoculation, evaluated 6 days after inoculation
Protocol: as §1, §2, §3
The young plants of radish are treated by spraying the active ingredient prepared as described above. Control plants are treated only with an aqueous solution of Acetone/Dimethyl sulfoxide/Tween® 80.
After 24 hours, the plants are contaminated by spraying the leaves with an aqueous suspension of Alternaria brassicae spores. The contaminated radish plants are incubated for 6 days at 20° C. and at 100% relative humidity.
The test is evaluated 6 days after the inoculation. 0% means an efficacy which corresponds to that of the control plants while an efficacy of 100% means that no disease is observed.

[5] = system: Sphaerotheca fuliginea; assay: In vivo preventive test on Sphaerotheca fuliginea (powdery mildew on cucurbits); details: 500 ppm of active ingredient; gherkin; evaluated 15 days after inoculation
Protocol: as §1, §2, §3
The young plants of gherkin are treated by spraying the active ingredient prepared as described above. Control plants are treated only with an aqueous solution of Acetone/Dimethyl sulfoxide/Tween® 80.
After 24 hours, the plants are contaminated by spraying the leaves with an aqueous suspension of Sphaerotheca fuliginea spores. The contaminated gherkin plants are incubated for 72 hours at 18° C. and at 100% relative humidity and then for 12 days at 20° C. and at 70-80% relative humidity.
The test is evaluated 15 days after the inoculation. 0% means an efficacy which corresponds to that of the control plants while an efficacy of 100% means that no disease is observed.

[6] = system: Septoria tritici; assay: In vivo preventive test on Septoria tritici (wheat); details: 500 ppm of active ingredient, evaluated 24 days after inoculation
Protocol: as §1, §2, §3, §4
After 24 hours, the plants are contaminated by spraying the leaves with an aqueous suspension of Septoria tritici spores. The contaminated wheat plants are incubated for 72 hours at 18° C. and at 100% relative humidity and then for 21 days at 20° C. and at 90% relative humidity.
The test is evaluated 24 days after the inoculation. 0% means an efficacy which corresponds to that of the control plants while an efficacy of 100% means that no disease is observed.

[7] = system: Uromyces appendiculatus; assay: In vivo preventive test on Uromyces appendiculatus (bean rust); details: Uromyces appendiculatus, 264 h
Protocol: as §1, §2, §3
The young plants of bean are treated by spraying the active ingredient prepared as described above. Control plants are treated only with an aqueous solution of Acetone/Dimethyl sulfoxide/Tween® 80.
After 24 hours, the plants are contaminated by spraying the leaves with an aqueous suspension of Uromyces appendiculatus spores. The contaminated bean plants are incubated for 24 hours at 20° C. and at 100% relative humidity and then for 10 days at 20° C. and at 70-80% relative humidity.
as §5

Cn1nc(C(F)F)c(C(=O)N(Cc2ccccc2C23CCCCCC2C3(Cl)Cl)C2CC2)c1F (stereo not shown) [I.13]
logP [1]: 5.17 | Efficacy [2]: 81% | Efficacy [3]: 75% | Efficacy [4]: 75% | Efficacy [5]: 100% | Efficacy [6]: 88%

CC(c1ccccc1C1CC2CCC1C2)N(C(=O)c1c(C(F)F)nn(C)c1F)C1CC1 (stereo not shown) [I.15, N-{1-[2-(bicyclo[2.2.1]hept-2-yl)phenyl]ethyl}-N-cyclopropyl-3-(difluoromethyl)-5-fluoro-1-methyl-1H-pyrazole-4-carboxamide]
logP [1]: 4.98 | chromatographic logP ([1]; reversed-phase HPLC column (C 18)): 4.91 | Efficacy [2]: 88% | Efficacy [3]: 100% | Efficacy [4]: 97% | Efficacy [5]: 100% | pest or weed control at 500 ppm ([7]; read-out: Efficacy, 500 ppm of active ingredient, evaluated 11 days after inoculation): 88% | pest or weed control at 500 ppm ([7]; read-out: Efficacy, 500 ppm, evaluated 11 days after inoculation, Table F2 comparison): ≥ 80% | pest or weed control at 500 ppm ([7]; read-out: Efficacy, 500 ppm, evaluated 11 days after inoculation, Table F3 comparison): ≥ 80% | Efficacy [6]: 100%

CC(C)c1ccc(C2=CC3CCC2(C)C3(C)C)cc1CN(C(=O)c1c(C(F)F)nn(C)c1F)C1CC1 (stereo not shown) [I.16]
logP [1]: 6.46 | Efficacy [2]: 94% | Efficacy [3]: 94% | Efficacy [4]: 79% | Efficacy [5]: 100% | Efficacy [6]: 100%
